The values below are quoted from earlier work in patent US7777053B2, “Efficient process for production of carvedilol phosphate” (Wanbury Limited, priority 2007, dated 2010).

Where a name gives a salt, the structure may show the parent alone. Read-outs that look alike come from different tables or passages of the source.

As usually defined, the solubility is the dissolved amount per volume that the medium holds.

For `COc1ccccc1OCCNCC(O)COc1cccc2[nH]c3ccccc3c12` (stereo not shown) [Carvedilol, 1-(9H-carbazol-4yloxy)-3-[[2-(2-methoxyphenoxy)-ethyl]amino]-propan-2-ol], the solubility (neutral or alkaline media, above pH of 9.0) was below 1 µg/mL. In addition, the saturation solubility entry by setting is: (pH=5, room temperature) “about 100 μg/ml”; (pH=7, room temperature) “about 23 μg/ml”.
Take `COc1ccccc1OCCNCC(O)COc1cccc2[nH]c3ccccc3c12` (stereo not shown) [carvedilol phosphate, phosphate salts of 1-(9H-carbazol-4yloxy)-3-[[2-(2-methoxyphenoxy)ethyl]amino]-propan-2-ol]: the aqueous solubility result (as described in US 2005/0277689 A1, compared with carvedilol) was “much higher aqueous solubility”.
